Data taken from patent US6610689B2, “HIV protease inhibitors based on amino acid derivatives” (priority 2001, dated 2003).

Molecular target: T1, HIV protease (Human immunodeficiency virus type 1 group M subtype B, UniProt P04585)
T1 construct: A third viral enzyme known as protease then cleaves the polyproteins
Assay: Enzymatic Assay for Determining the Inhibition Constant (Ki) of Synthetic Compounds Targeting the HIV Protease (fluorometric FRET assay)
Assay type: biochemical
Source text: Enzymatic Assay for Determining the Inhibition Constant (Ki) of Synthetic Compounds Targeting the HIV Protease
This is a fluorometric assay based on the cleavage by protease of a substrate carrying a donor group (EDANS) and an acceptor group (DABCYL) on each side of the cleavage site, interacting together through fluorescence resonance energy transfer (FRET) as described by Matayoshi et al. (Science 247:[…], 1990).
After calculation of Vo and Vi, the inhibition constant (Ki) of the compound is determined using the equation of Henderson: [formula]
where Vo=the enzyme's initial velocity
Vi=the enzyme velocity in the presence of the inhibitory compound,
[I]=inhlibitor concentration, [S]=substrate concentration,
Km=Michaelis-Menten constant and Kiapp=apparent Ki
Graphs are traced and the Ki determined using GraphPad Prism software v. 3.0.

Compound | Ki [nM]
CC(=O)Nc1ccc(S(=O)(=O)N[C@@H](Cc2ccccc2)C(=O)NCCCC[C@@H](CO)N(CC(C)C)S(=O)(=O)c2ccc(C)cc2)cc1 [Example 121, (2S,2′S) 2-N-Isobutyl-2-N-(4-methylbenzenesulfonyl)-6-N-[N′α-(4-acetylaminobenzenesulfonyl)-S-phenylalanyl]-2,6-diaminohexanol] | 23
Cc1ccc(S(=O)(=O)N[C@@H](CC2CCCCC2)C(=O)NCCCC[C@@H](C(=O)O)N(CC(C)C)S(=O)(=O)c2ccc(C)cc2)cc1 [Example 33, Nα-Isobutyl-Nα-(4-methylbenzenesulfonyl)-Nε-[N′α-(4-methylbenzenesulfonyl)-L-cyclohexylalanyl]-L-lysine] | 3.2
Cc1ccc(S(=O)(=O)N(CC(C)C)C(CCCCNC(=O)C(Cc2ccccc2)NC(=O)OC2CCOC2)C(=O)O)cc1 [Example 80, Nα-Isobutyl-Nα-(4-methylbenzenesulfonyl)-Nε-[N′α-(carbotetrahydro-3-furanyloxy)-L-phenylalanyl]-L-lysine] | 1.4
Cc1ccc(S(=O)(=O)N(CC(C)C)[C@@H](CCCCNC(=O)[C@H](Cc2c[nH]c3ccccc23)NS(=O)(=O)c2cccs2)C(=O)O)cc1 [Example 53, Nα-Isobutyl-Nα-(4-methylbenzenesulfonyl)-Nε-[N′α-(2-thiophenesulfonyl)-L-tryptophanyl]-L-lysine] | 13
Cc1ccc(S(=O)(=O)N(CC(C)C)[C@@H](CCCCNC(=O)[C@H](Cc2ccccc2)NS(=O)(=O)c2cccs2)C(=O)NO)cc1 [Example 59, Nα-Isobutyl-Nα-(4-methylbenzenesulfonyl)-Nε-[N′α-(2-thiophenesulfonyl)-L-phenylalanyl]-L-lysine N-hydroxylamide] | 13
Cc1ccc(S(=O)(=O)N(CC(C)C)[C@H](CO)CCCCNC(=O)[C@H](Cc2cccnc2)NC(=O)OC(C)(C)C)cc1 [Example 135, (2S,2′S) 2-N-Isobutyl-2-N-(4-methylbenzenesulfonyl)-6-N-(N′α-tert-butoxycarbonyl-S-3-pyridylalanyl)-2,6-diaminohexanol] | 144
CC(C)CN([C@H](CO)CCCCNC(=O)[C@H](Cc1ccccc1)NS(=O)(=O)c1ccc(N)cc1)S(=O)(=O)c1ccc(N)cc1 [Example 195, (2S,2′S) 2-N-(4-Aminobenzenesulfonyl)-2-N-isobutyl-6-N-[N′α-(4-aminobenzenesulfonyl)-S-phenylalanyl]-2,6-diaminohexanol] | 20
Cc1ccc(S(=O)(=O)N(CC(C)C)[C@@H](CCCCNC(=O)[C@H](Cc2ccccc2)NS(=O)(=O)c2ccc([N+](=O)[O-])cc2)C(=O)O)cc1 [Example 10, Nα-Isobutyl-Nα-(4-methylbenzenesulfonyl)-Nε-[N′α-(4-nitrobenzenesulfonyl)-L-phenylalanyl]-L-lysine] | 18
Cc1ccc(S(=O)(=O)N(CC(C)C)[C@H](CO)CCCCNC(=O)[C@H](Cc2c[nH]c3ccccc23)NC(=O)OCC(C)C)cc1 [Example 192, (2S,2′S) 2-N-Isobutyl-2-N-(4-methylbenzenesulfonyl)-6-N-(N′α-isobutoxycarbonyl-S-tryptophanyl)-2,6-diaminohexanol] | 4.5
CN[C@@H](Cc1ccccc1)C(=O)NCCCC[C@@H](C(=O)O)N(CC(C)C)S(=O)(=O)c1ccc(C)cc1 [Example 88, Nα-Isobutyl-Nα-(4-methylbenzenesulfonyl)-Nε-(N′α-methyl-L-phenylalanyl)-L-lysine] | 2.1
Cc1ccc(S(=O)(=O)N(CC(C)C)[C@H](CO)CCCCNC(=O)[C@H](Cc2c[nH]c3ccccc23)NS(=O)(=O)c2ccc([N+](=O)[O-])cc2)cc1 [Example 130, (2S,2′S) 2-N-Isobutyl-2-N-(4-methylbenzenesulfonyl)-6-N-[N′α-(4-nitrobenzenesulfonyl)-S-tryptophanyl]-2,6-diaminohexanol] | 27
Cc1ccc(S(=O)(=O)N(CC(C)C)[C@H](CO)CCCCNC(=O)[C@H](Cc2c(F)c(F)c(F)c(F)c2F)NC(=O)OC(C)(C)C)cc1 [Example 143, (2S,2′S) 2-N-Isobutyl-2-N-(4-methylbenzenesulfonyl)-6-N-(N′α-tert-butoxycarbonyl-S-pentafluorophenylalanyl)-2,6-diaminohexanol] | > 300
